Source: US12338236B2, “Benzoisothiazole and benzoisoxazole compounds for the treatment of mental disorders” (SUVEN LIFE SCIENCES LIMITED, priority 2022, dated 2025)
Counter-ions that a name gives are not always drawn.

Key:
[1] = target: T1, human adrenergic α1B receptor (Homo sapiens, UniProt P35368); assay: Determination of Ki values at adrenergic α1B receptor ([3H]-Prazosin radioligand binding); conditions: hα1B, Chem-1 cells, [3H]-Prazosin 1 nM; read-out: Ki Alpha1B
T1 construct: expressed in transfected cells; host or cells: Chem-1
T1 sequence (P35368 1-520): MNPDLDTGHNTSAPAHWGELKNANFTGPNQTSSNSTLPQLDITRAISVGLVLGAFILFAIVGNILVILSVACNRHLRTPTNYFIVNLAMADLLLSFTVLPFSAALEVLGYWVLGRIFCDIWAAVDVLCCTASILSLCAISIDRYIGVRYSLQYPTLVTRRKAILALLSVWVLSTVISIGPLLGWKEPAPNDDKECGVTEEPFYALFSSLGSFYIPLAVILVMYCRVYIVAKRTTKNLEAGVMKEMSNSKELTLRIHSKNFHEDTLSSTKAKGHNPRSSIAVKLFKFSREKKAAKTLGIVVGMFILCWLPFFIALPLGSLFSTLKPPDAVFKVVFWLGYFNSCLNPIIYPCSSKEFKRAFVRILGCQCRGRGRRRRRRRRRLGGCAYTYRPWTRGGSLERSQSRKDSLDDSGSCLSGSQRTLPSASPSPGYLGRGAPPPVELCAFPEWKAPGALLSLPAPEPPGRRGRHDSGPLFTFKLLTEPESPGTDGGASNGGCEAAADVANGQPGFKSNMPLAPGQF
Protocol: Example-47: Determination of Ki Values at Adrenergic α1B Receptor
• Receptor source: Recombinant mammalian cells (Chem-1) • Radioligand: [^3H]-Prazosin (77.4 Ci/mmol) • Final ligand concentration: 1 nM • Non-specific determinant: 0.1 mM Prazosin • Reference compound: Prazosin • Positive control: Prazosin Incubation conditions: Reactions were carried out in buffer with pH 7.4 containing 67 mM Tris-HCl, 67 μM EDTA, […] for 1 h at RT. The reaction was terminated by rapid vacuum filtration onto the glass fiber filters. Radioactivity trapped onto the filters was determined and compared to the control values in order to ascertain any interactions of the test compound(s) with cloned human adrenergic α1B receptor binding site.

human SERT = target: T2, human SERT (Homo sapiens, UniProt P31645); assay: Determination of Ki values at SERT receptor ([3H]-Citalopram SPA binding); conditions: hSERT, HEK293, [3H]-Citalopram 2 nM
T2 construct: expressed in transfected cells; host or cells: HEK293
T2 sequence (P31645 whole entry): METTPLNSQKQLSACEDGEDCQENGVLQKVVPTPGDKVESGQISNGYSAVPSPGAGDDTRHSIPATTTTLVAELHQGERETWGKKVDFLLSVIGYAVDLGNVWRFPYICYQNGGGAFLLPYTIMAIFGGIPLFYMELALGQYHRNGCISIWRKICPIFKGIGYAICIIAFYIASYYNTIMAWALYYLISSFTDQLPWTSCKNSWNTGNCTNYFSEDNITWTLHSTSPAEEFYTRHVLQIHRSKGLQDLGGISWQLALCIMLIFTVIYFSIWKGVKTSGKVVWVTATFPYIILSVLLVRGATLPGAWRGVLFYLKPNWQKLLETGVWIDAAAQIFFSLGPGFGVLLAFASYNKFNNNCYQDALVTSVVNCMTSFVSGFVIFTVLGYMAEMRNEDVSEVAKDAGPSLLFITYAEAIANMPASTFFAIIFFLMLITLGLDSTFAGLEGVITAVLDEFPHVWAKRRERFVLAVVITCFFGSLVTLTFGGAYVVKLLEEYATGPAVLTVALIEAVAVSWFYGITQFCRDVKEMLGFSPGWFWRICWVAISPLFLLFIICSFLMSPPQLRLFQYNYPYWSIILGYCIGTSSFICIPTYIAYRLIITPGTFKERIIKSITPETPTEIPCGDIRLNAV
Protocol: Example-46: Determination of Ki Values at SERT Receptor
• Receptor source: Recombinant mammalian cells (HEK293) • Radioligand: [^3H]-Citalopram (80.8 Ci/mmol) • Final ligand concentration: 2 nM • Non-specific determinant: 0.1 mM Venlafaxine • Reference compound: Venlafaxine • Positive control: Venlafaxine Incubation conditions: Reactions were carried out in buffer with pH 7.4 containing 50 mM Tris-HCl, 150 mM NaCl, 5 mM KCl and Scintillation proximity assay (SPA) beads (0.1 mg/well) for 3 h at RT. Radioactivity proximal to SPA beads was determined by scintillation proximity assay and compared to the control values in order to ascertain any interactions of the test compound(s) with cloned human SERT receptor binding site.

[2] = target: T3, human dopamine D2s receptor (Homo sapiens, UniProt P14416); assay: Determination of Ki values at D2S receptor ([3H]-Raclopride radioligand binding); conditions: hD2 (D2S), CHO-K1, [3H]-Raclopride 4 nM; read-out: Ki D2
T3 construct: expressed in transfected cells; host or cells: CHO-K1
T3 sequence (P14416 1-414 isoform P14416-2): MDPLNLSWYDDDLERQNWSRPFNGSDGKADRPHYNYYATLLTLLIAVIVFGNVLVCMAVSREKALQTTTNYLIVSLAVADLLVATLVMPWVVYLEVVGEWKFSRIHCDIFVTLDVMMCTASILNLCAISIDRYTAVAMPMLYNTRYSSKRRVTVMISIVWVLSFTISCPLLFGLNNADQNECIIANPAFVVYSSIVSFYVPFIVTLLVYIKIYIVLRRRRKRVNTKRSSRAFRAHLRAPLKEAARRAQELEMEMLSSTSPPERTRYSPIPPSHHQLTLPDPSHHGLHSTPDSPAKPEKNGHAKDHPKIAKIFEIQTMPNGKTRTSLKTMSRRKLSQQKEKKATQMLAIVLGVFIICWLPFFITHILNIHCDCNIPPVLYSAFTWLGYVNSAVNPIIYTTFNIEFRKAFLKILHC
Protocol: Example-45: Determination of Ki Values at D2S Receptor
• Receptor source: Recombinant mammalian cells (CHO-K1) • Radioligand: [^3H]-Raclopride (80.8 Ci/mmol) • Final ligand concentration: 4 nM • Non-specific determinant: 0.1 mM Haloperidol • Reference compound: Haloperidol • Positive control: Haloperidol Incubation conditions: Reactions were carried out in buffer with pH 7.4 containing 50 mM Tris-HCl, 120 mM NaCl, 5 mM KCl, 5 mM MgCl2, 1 mM EDTA for 2 h at RT. The reaction was terminated by rapid vacuum filtration onto the glass fiber filters. Radioactivity trapped onto the filters was determined and compared to the control values in order to ascertain any interactions of the test compound(s) with cloned human dopamine D2s receptor binding site.

human 5-HT1A receptor = target: T4, human 5-HT1A receptor (Homo sapiens, UniProt P08908); assay: Determination of Ki values at 5-HT1A receptor ([3H]-8-Hydroxy DPAT radioligand binding); conditions: h5-HT1A, HEK293-EBNA, [3H]-8-Hydroxy DPAT 0.8 nM
T4 construct: expressed in transfected cells; host or cells: HEK293-EBNA
T4 sequence (P08908 1-422): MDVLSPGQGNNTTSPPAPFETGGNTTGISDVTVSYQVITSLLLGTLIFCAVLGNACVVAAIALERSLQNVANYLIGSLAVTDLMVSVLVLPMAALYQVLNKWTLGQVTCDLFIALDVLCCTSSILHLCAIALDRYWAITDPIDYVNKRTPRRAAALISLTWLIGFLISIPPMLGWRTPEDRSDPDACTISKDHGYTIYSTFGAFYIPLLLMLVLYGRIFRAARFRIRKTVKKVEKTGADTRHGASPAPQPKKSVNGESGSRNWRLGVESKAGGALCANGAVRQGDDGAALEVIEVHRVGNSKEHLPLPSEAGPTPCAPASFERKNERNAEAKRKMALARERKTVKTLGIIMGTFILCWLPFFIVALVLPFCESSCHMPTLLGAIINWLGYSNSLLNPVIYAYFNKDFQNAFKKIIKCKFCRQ
Protocol: Example-43: Determination of Ki Values at 5-HT1A Receptor
• Receptor source: Recombinant mammalian cells (HEK293-EBNA) • Radioligand: [^3H]-8-Hydroxy DPAT (200 Ci/mmol) • Final ligand concentration: 0.8 nM • Non-specific determinant: 0.1 mM U92016A • Reference compound: U92016A • Positive control: U92016A Incubation conditions: Reactions were carried out in buffer with pH 7.4 containing 50 mM Tris-HCl, 0.5 mM EDTA, 10 mM MgSO4, 0.1% Ascorbic acid for 2 h at RT. The reaction was terminated by rapid vacuum filtration onto the glass fiber filters. Radioactivity trapped onto the filters was determined and compared to the control values in order to ascertain any interactions of the test compound(s) with cloned human 5-HT1A receptor binding site.

SMILES | Ki [1] [nM] | Ki (human SERT) [nM] | Ki [2] [nM] | Ki (human 5-HT1A receptor) [nM]
Cc1nnc(-c2csc(OCCCN3CCN(c4nsc5ccccc45)CC3)n2)o1 [Example-2, 3-(4-{3-[4-(5-Methyl-[1,3,4]oxadiazol-2-yl)-thiazol-2-yloxy]-propyl}-piperazin-1-yl)-benzo[d]isothiazole oxalate] | 13.3 | 80 | 0.41 | 0.15
Cc1noc(-c2csc(OCCCN3CCN(c4nsc5ccccc45)CC3)n2)n1 [compound 12, 3-(4-{3-[4-(3-Methyl-[1,2,4]oxadiazol-5-yl)-thiazol-2-yloxy]-propyl}-piperazin-1-yl)-benzo[d]isothiazole oxalate] | 14.4 | 157 | 0.4 | 0.2
